Results published in ChEMBL document CHEMBL1201862, “PubChem BioAssay data set” (2004).
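All cell lines were grown in 96-well plates and treated with compound for 48 hours. The concentration for 50% growth inhibition is given as GI50.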 Calls of active or inactive are those of the source. Rule as the data show it: active = GI50 up to about 1.1 µM and inactive = higher.

Experiments:
Assay in all cases: NCI-60 cell line screen, 48 h
HT-29 = tested on: HT-29
SF-268 = tested on: SF-268
HCT-15 = tested on: HCT-15
786-0 = tested on: 786-0
NCI-H226 = tested on: NCI-H226
SF-295 = tested on: SF-295
SK-OV-3 = tested on: SK-OV-3
UACC-62 = tested on: UACC-62
SN12C = tested on: SN12C
MDA-MB-231 = tested on: MDA-MB-231
DU-145 = tested on: DU-145
MCF7 = tested on: MCF7
OVCAR-4 = tested on: OVCAR-4
KM12 = tested on: KM12
SNB-75 = tested on: SNB-75
SW-620 = tested on: SW-620
U-251 = tested on: U-251
HOP-62 = tested on: HOP-62
NCI-H460 = tested on: NCI-H460
RPMI-8226 = tested on: RPMI-8226
SK-MEL-28 = tested on: SK-MEL-28
SK-MEL-2 = tested on: SK-MEL-2
BT-549 = tested on: BT-549
A549 = tested on: A549
OVCAR-3 = tested on: OVCAR-3
MDA-MB-435 = tested on: MDA-MB-435
COLO 205 = tested on: COLO 205
OVCAR-8 = tested on: OVCAR-8
HCT-116 = tested on: HCT-116
MOLT-4 = tested on: MOLT-4
HL-60 = tested on: HL-60
CAKI-1 = tested on: CAKI-1
UO-31 = tested on: UO-31
SK-MEL-5 = tested on: SK-MEL-5
EKVX = tested on: EKVX
SR = tested on: SR
ACHN = tested on: ACHN
A498 = tested on: A498
RXF 393 = tested on: RXF 393
HCC 2998 = tested on: HCC 2998
OVCAR-5 = tested on: OVCAR-5
T47D = tested on: T47D
NCI-H23 = tested on: NCI-H23
IGROV-1 = tested on: IGROV-1
M14 = tested on: M14
CCRF-CEM = tested on: CCRF-CEM
Hs-578T = tested on: Hs-578T
NCI-H522 = tested on: NCI-H522
SF-539 = tested on: SF-539
HOP-92 = tested on: HOP-92
PC-3 = tested on: PC-3
K562 = tested on: K562
NCI/ADR-RES = tested on: NCI/ADR-RES
UACC-257 = tested on: UACC-257
SNB-19 = tested on: SNB-19
TK-10 = tested on: TK-10
MDA-N = tested on: MDA-N
Malme-3M = tested on: Malme-3M

SMILES: COc1ccc(CCCCl)c(C2=NCCc3ccccc32)c1
- GI50 (HT-29): 19.2 µM (inactive)
- GI50 (SF-268): 27.5 µM (inactive)
- GI50 (HCT-15): > 100 µM
- GI50 (786-0): 89.5 µM (inactive)
- GI50 (NCI-H226): 31.7 µM (inactive)
- GI50 (SF-295): 32.8 µM (inactive)
- GI50 (SK-OV-3): > 100 µM (inactive)
- GI50 (UACC-62): 84.5 µM (inactive)
- GI50 (SN12C): 9.91 µM (inactive)
- GI50 (MDA-MB-231): 25.1 µM (inactive)
- GI50 (DU-145): > 100 µM (inactive)
- GI50 (MCF7): 38.2 µM (inactive)
- GI50 (OVCAR-4): 45.1 µM (inactive)
- GI50 (KM12): 27.4 µM (inactive)
- GI50 (SNB-75): 29.1 µM (inactive)
- GI50 (SW-620): 70.8 µM (inactive)
- GI50 (U-251): 9.75 µM (inactive)
- GI50 (HOP-62): 33.4 µM (inactive)
- GI50 (NCI-H460): 36.4 µM (inactive)
- GI50 (RPMI-8226): 2.99 µM (inactive)
- GI50 (SK-MEL-28): > 100 µM (inactive)
- GI50 (SK-MEL-2): 61.7 µM (inactive)
- GI50 (BT-549): 33.3 µM (inactive)
- GI50 (A549): 44.2 µM (inactive)
- GI50 (OVCAR-3): 56.5 µM (inactive)
- GI50 (MDA-MB-435): 26.2 µM (inactive)
- GI50 (COLO 205): 17.3 µM (inactive)
- GI50 (OVCAR-8): 35.4 µM (inactive)
- GI50 (HCT-116): 29.5 µM (inactive)
- GI50 (MOLT-4): 32.4 µM (inactive)
- GI50 (HL-60): 10.4 µM (inactive)
- GI50 (CAKI-1): > 100 µM (inactive)
- GI50 (UO-31): 66.5 µM (inactive)
- GI50 (SK-MEL-5): 9.59 µM (inactive)
- GI50 (EKVX): 37.7 µM (inactive)
- GI50 (SR): 28.1 µM (inactive)
- GI50 (ACHN): > 100 µM (inactive)
- GI50 (A498): > 100 µM (inactive)
- GI50 (RXF 393): 56.9 µM (inactive)
- GI50 (HCC 2998): 23.4 µM (inactive)
- GI50 (OVCAR-5): > 100 µM (inactive)
- GI50 (T47D): 32.9 µM (inactive)
- GI50 (NCI-H23): 11.1 µM (inactive)
- GI50 (IGROV-1): 24.8 µM (inactive)
- GI50 (M14): 71.3 µM (inactive)
- GI50 (CCRF-CEM): 53.6 µM (inactive)
- GI50 (Hs-578T): 20.6 µM (inactive)
- GI50 (NCI-H522): 6.75 µM (inactive)
- GI50 (SF-539): 35.8 µM (inactive)
- GI50 (HOP-92): 71.1 µM (inactive)
- GI50 (PC-3): 19.5 µM (inactive)
- GI50 (K562): 14.6 µM (inactive)
- GI50 (NCI/ADR-RES): > 100 µM (inactive)
- GI50 (UACC-257): 34.7 µM (inactive)
- GI50 (SNB-19): 14.8 µM (inactive)
- GI50 (TK-10): > 100 µM (inactive)

SMILES: C(=N\C12CC3CC(CC(C3)C1)C2)/C1CCCCC1
- GI50 (HT-29): > 100 µM (inactive)
- GI50 (SF-268): > 100 µM (inactive)
- GI50 (HCT-15): > 100 µM
- GI50 (786-0): > 100 µM (inactive)
- GI50 (NCI-H226): > 100 µM (inactive)
- GI50 (SF-295): > 100 µM (inactive)
- GI50 (MDA-N): > 100 µM (inactive)
- GI50 (UACC-62): > 100 µM (inactive)
- GI50 (SN12C): > 100 µM (inactive)
- GI50 (MDA-MB-231): > 100 µM (inactive)
- GI50 (DU-145): > 100 µM (inactive)
- GI50 (MCF7): > 100 µM (inactive)
- GI50 (OVCAR-4): > 100 µM (inactive)
- GI50 (KM12): > 100 µM (inactive)
- GI50 (SNB-75): > 100 µM (inactive)
- GI50 (SW-620): > 100 µM (inactive)
- GI50 (U-251): > 100 µM (inactive)
- GI50 (HOP-62): > 100 µM (inactive)
- GI50 (NCI-H460): > 100 µM (inactive)
- GI50 (RPMI-8226): > 100 µM (inactive)
- GI50 (SK-MEL-2): > 100 µM (inactive)
- GI50 (BT-549): > 100 µM (inactive)
- GI50 (A549): > 100 µM (inactive)
- GI50 (OVCAR-3): > 100 µM (inactive)
- GI50 (MDA-MB-435): > 100 µM (inactive)
- GI50 (COLO 205): > 100 µM (inactive)
- GI50 (OVCAR-8): > 100 µM (inactive)
- GI50 (HCT-116): > 100 µM (inactive)
- GI50 (MOLT-4): > 100 µM (inactive)
- GI50 (HL-60): > 100 µM (inactive)
- GI50 (CAKI-1): > 100 µM (inactive)
- GI50 (UO-31): > 100 µM (inactive)
- GI50 (SK-MEL-5): > 100 µM (inactive)
- GI50 (EKVX): > 100 µM (inactive)
- GI50 (SR): > 100 µM (inactive)
- GI50 (ACHN): > 100 µM (inactive)
- GI50 (A498): > 100 µM (inactive)
- GI50 (RXF 393): > 100 µM (inactive)
- GI50 (HCC 2998): > 100 µM (inactive)
- GI50 (OVCAR-5): > 100 µM (inactive)
- GI50 (NCI-H23): > 100 µM (inactive)
- GI50 (IGROV-1): > 100 µM (inactive)
- GI50 (M14): > 100 µM (inactive)
- GI50 (CCRF-CEM): > 100 µM (inactive)
- GI50 (Hs-578T): > 100 µM (inactive)
- GI50 (NCI-H522): > 100 µM (inactive)
- GI50 (SF-539): > 100 µM (inactive)
- GI50 (HOP-92): > 100 µM (inactive)
- GI50 (PC-3): > 100 µM (inactive)
- GI50 (K562): > 100 µM (inactive)
- GI50 (NCI/ADR-RES): > 100 µM (inactive)
- GI50 (UACC-257): > 100 µM (inactive)
- GI50 (SNB-19): > 100 µM (inactive)
- GI50 (TK-10): > 100 µM (inactive)
- GI50 (Malme-3M): > 100 µM (inactive)
